This is an account of results in patent US20260049076A1, “Tertiary Amine Substituted Bicyclic Compounds Useful as T Cell Activators” (BRISTOL-MYERS SQUIBB COMPANY, priority 2022, published 2026).

As a reminder, the IC50 is the concentration that gives 50% inhibition. As a reminder, the EC50 is the midpoint of the concentration-response curve. The low end stands for a more potent agent, the high end for a less potent agent.

One experiment addresses T1, human DGKα (Homo sapiens, UniProt P23743).
T1 construct: TVMV protease cleavage site (C); Hexa-His (C); made in house; host or cells: Sf9 insect cells (baculovirus)
The experiment is described as follows: In vitro DGK inhibition assay, DGKα liposome (LIPGLO) assay. In kind it is biochemical. The settings on record: read-out: Enzyme Inhibition DGKalpha IC50. The method in brief: (§1)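 Baculovirus/Sf9-expressed His-tagged human DGKα or DGKζ (5 nM) on extruded liposomes (2 mM PS, 0.25 mM DAG, 2.75 mM PC) in MOPS pH 7.5 with MgCl2, CaCl2 and 150 μM ATP, 1 h.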

The next experiment addresses T2, human DGKζ (Homo sapiens, UniProt Q13574).
T2 construct: TVMV protease cleavage site (C); Hexa-His (C); made in house; host or cells: Sf9 insect cells (baculovirus)
The experiment is described as follows: In vitro DGK inhibition assay, DGKζ liposome (LIPGLO) assay. The class given is biochemical. The settings on record: read-out: Enzyme Inhibition DGKzeta IC50. The method in brief: as §1

The target of another experiment is DGKalpha (Homo sapiens, UniProt P23743). The experiment is described as follows: Translocation DGKalpha. The class given is cell-based.
Sequence of DGKalpha (P23743 whole entry): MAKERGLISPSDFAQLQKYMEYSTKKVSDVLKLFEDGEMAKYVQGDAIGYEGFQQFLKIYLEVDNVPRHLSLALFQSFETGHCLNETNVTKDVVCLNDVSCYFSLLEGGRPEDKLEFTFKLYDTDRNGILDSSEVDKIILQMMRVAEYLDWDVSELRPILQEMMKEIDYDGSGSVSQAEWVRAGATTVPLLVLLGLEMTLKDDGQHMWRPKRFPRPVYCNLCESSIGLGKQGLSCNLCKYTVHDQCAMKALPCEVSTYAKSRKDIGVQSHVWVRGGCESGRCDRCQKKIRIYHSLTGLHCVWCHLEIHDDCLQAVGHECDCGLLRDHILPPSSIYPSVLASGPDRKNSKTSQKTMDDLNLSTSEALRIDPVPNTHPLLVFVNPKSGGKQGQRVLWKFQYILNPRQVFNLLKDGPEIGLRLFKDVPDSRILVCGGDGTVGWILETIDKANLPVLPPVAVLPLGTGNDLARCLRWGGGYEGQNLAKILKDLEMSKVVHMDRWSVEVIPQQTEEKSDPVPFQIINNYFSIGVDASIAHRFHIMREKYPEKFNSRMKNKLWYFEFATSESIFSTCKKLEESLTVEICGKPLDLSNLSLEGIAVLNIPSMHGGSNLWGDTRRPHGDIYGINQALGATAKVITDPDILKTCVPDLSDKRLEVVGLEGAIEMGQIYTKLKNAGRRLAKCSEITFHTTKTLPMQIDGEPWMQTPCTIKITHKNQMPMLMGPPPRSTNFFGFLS
The target of a further experiment is DGKzeta (Homo sapiens, UniProt Q13574). The experiment in a line: Translocation DGKzeta. The class given is cell-based.
Sequence of DGKzeta (Q13574 whole entry): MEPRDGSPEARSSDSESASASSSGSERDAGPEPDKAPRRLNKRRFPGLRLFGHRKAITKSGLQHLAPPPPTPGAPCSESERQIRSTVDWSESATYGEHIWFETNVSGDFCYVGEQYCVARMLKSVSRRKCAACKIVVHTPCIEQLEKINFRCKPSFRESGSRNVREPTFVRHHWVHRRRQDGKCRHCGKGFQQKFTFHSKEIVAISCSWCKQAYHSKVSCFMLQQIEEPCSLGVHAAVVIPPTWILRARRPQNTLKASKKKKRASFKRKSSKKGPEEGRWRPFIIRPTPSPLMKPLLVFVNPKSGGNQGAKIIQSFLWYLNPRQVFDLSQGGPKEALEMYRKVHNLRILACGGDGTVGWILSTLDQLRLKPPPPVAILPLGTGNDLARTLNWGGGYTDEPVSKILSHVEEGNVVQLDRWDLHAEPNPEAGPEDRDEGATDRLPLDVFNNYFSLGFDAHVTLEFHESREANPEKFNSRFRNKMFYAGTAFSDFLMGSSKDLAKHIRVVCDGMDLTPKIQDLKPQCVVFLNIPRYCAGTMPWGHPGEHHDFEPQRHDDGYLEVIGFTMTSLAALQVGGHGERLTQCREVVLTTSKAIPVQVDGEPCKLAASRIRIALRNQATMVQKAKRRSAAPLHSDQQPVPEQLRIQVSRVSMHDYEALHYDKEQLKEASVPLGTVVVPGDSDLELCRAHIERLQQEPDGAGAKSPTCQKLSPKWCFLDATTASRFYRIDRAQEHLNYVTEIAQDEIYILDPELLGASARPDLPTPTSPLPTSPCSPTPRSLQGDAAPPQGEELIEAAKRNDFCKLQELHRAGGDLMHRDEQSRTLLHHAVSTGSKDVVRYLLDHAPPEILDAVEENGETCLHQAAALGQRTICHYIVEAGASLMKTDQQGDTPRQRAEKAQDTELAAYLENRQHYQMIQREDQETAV

A value given as a limit tells only on which side of the number the result lay.

T1 sequence (P23743 with tags, fused parts or gaps): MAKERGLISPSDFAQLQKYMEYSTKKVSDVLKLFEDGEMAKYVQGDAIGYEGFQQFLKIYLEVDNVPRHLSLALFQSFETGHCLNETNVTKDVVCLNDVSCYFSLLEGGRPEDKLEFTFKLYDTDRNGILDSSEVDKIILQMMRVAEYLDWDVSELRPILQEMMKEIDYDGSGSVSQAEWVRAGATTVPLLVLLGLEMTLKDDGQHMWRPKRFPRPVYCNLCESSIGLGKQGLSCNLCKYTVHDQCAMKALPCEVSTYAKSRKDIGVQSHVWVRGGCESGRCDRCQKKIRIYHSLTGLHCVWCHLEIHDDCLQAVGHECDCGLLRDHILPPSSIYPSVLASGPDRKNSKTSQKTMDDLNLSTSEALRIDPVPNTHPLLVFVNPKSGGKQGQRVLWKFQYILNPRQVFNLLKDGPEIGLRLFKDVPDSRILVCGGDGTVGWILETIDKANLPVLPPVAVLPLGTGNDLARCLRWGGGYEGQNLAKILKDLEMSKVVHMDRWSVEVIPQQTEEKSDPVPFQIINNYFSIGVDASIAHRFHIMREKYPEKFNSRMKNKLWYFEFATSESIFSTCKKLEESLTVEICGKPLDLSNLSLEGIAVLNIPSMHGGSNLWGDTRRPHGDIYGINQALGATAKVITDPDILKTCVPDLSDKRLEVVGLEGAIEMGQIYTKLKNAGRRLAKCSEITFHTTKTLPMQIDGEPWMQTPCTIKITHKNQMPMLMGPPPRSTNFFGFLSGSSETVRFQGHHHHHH
T2 sequence (Q13574 with tags, fused parts or gaps isoform Q13574-4): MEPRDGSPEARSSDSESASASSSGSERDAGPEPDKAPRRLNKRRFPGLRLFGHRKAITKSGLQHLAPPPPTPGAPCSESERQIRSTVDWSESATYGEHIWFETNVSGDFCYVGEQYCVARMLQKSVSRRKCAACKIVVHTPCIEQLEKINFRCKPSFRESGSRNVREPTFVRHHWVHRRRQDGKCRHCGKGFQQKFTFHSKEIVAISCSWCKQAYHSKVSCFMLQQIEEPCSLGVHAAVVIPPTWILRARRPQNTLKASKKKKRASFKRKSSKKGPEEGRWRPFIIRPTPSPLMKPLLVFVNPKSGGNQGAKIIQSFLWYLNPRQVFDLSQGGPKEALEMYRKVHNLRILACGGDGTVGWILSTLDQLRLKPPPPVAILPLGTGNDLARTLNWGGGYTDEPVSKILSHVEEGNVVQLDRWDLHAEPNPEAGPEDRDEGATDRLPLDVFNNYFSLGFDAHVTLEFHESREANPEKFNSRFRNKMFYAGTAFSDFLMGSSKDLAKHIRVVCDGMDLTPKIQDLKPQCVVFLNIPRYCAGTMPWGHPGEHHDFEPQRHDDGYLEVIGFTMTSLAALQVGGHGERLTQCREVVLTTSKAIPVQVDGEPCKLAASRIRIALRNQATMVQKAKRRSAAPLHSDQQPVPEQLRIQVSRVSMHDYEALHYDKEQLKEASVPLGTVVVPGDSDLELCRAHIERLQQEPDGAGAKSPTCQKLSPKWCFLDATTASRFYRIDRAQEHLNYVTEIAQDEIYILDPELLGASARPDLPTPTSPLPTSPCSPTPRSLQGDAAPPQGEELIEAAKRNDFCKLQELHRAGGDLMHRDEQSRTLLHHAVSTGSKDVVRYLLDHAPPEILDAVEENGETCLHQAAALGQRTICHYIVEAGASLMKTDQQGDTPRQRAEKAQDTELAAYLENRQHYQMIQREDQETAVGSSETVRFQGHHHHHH

In the case of `Cn1c(=O)cc(N(CC2CC2)c2ccc(OCC(F)(F)F)cc2)c2nc(C#N)ccc21` [Example 37, 8-((cyclopropylmethyl)(4-(2,2,2-trifluoroethoxy)phenyl)amino)-5-methyl-6-oxo-5,6-dihydro-1,5-naphthyridine-2-carbonitrile], the IC50 came out at 1.1 µM at human DGKα and 0.35 µM at human DGKζ. Further, the EC50 at DGKalpha came to 10 µM; on DGKzeta, 5 µM.

On to `CC(=O)N(C)c1ccc(N(CC2CC2)c2cc(=O)n(C)c3ccc(C#N)nc23)cc1` [Example 133], for which the values for the IC50 on human DGKα and at human DGKζ were more than 38 µM and 4.4 µM, respectively. Also, the EC50 on DGKalpha is more than 3 µM; at DGKzeta, 0.58 µM.

Take `Cn1c(=O)cc(N(CC2CC2)c2ccc3occc3c2)c2nc(C#N)ccc21` [Example 65, 8-(benzofuran-5-yl (cyclopropylmethyl)amino)-5-methyl-6-oxo-5,6-dihydro-1,5-naphthyridine-2-carbonitrile]: the IC50 on human DGKα was 1.9 µM; on human DGKζ, 2.7 µM. The figures for the EC50 on DGKalpha and on DGKzeta were 1.1 µM and 0.57 µM, respectively.

On to `Cn1c(=O)cc(N(CC2CC2)c2ccc(C3CC3)c(-c3cccc(F)c3)c2)c2nc(C#N)ccc21` [Example 126, 8-((6-cyclopropyl-3′-fluoro-[, 1′-biphenyl]-3-yl) (cyclopropylmethyl)amino)-5-methyl-6-oxo-5,6-dihydro-1,5-naphthyridine-2-carbonitrile], for which the IC50 was more than 38 µM at human DGKα and 17 µM on human DGKζ. The figures for the EC50 on DGKalpha and at DGKzeta were more than 3 µM and 0.085 µM, respectively.

Take `Cn1c(=O)cc(N(CC2CC2)c2ccc(C3CC3)c(-c3ccc(OCC4CC4)cc3)c2)c2nc(C#N)ccc21` [Example 131, 8-((6-cyclopropyl-4′-(cyclopropylmethoxy)-[1,1′-biphenyl]-3-yl) (cyclopropylmethyl)amino)-5-methyl-6-oxo-5,6-dihydro-1,5-naphthyridine-2-carbonitrile]: the results for the IC50 on human DGKα and on human DGKζ were more than 38 µM and 34 µM, respectively. Further, the EC50 on DGKalpha is more than 3 µM; on DGKzeta it was 0.18 µM.

Turning to `Cn1c(=O)cc(N(CC2CC2)c2ccc(C3CC3)c(-c3ccc(N4CCOCC4)cc3)c2)c2nc(C#N)ccc21` [Example 124, 8-((6-cyclopropyl-4′-morpholino-[1,1′-biphenyl]-3-yl)(cyclopropylmethyl)amino)-5-methyl-6-oxo-5,6-dihydro-1,5-naphthyridine-2-carbonitrile], the IC50 is 34 µM at human DGKα and more than 38 µM on human DGKζ. Besides, the EC50 turned out to be 2.5 µM at DGKalpha and 0.18 µM at DGKzeta.

`Cn1c(=O)cc(N(CC2CC2)c2ccc(C3CC3)c(-c3ccc(C(N)=O)cc3)c2)c2nc(C#N)ccc21` [Example 130, 5′-((6-cyano-1-methyl-2-oxo-1,2-dihydro-1,5-naphthyridin-4-yl)(cyclopropylmethyl)amino)-2′-cyclopropyl-[1,1′-biphenyl]-4-carboxamide]: the IC50 on human DGKα and at human DGKζ was more than 38 µM throughout. The results for the EC50 at DGKalpha and on DGKzeta were more than 3 µM and 0.16 µM, respectively.

As to `Cc1cc(N(CC2CC2)c2cc(=O)n(C)c3ccc(C#N)nc23)ccc1C1CC1` [Example 132], the values for the IC50 at human DGKα and at human DGKζ were more than 38 µM and 3.6 µM, respectively. Further, the EC50 was more than 3 µM at DGKalpha and 0.2 µM at DGKzeta.

For the compound `Cn1c(=O)cc(N(CC2CC2)c2ccc3c(c2)OCCO3)c2nc(C#N)ccc21` [Example 120, 8-((cyclopropylmethyl)(2,3-dihydrobenzo[b][1,4]dioxin-6-yl)amino)-5-methyl-6-oxo-5,6-dihydro-1,5-naphthyridine-2-carbonitrile], the values for the IC50 on human DGKα and at human DGKζ were 13 µM and 6.9 µM, respectively. Also, the EC50 is 0.92 µM on DGKalpha and 0.33 µM on DGKzeta.

For `CN(C)c1ccc(N(CC2CC2)c2cc(=O)n(C)c3ccc(C#N)nc23)cc1` [Example 116, 8-((cyclopropylmethyl)(4-(dimethylamino)phenyl)amino)-5-methyl-6-oxo-5,6-dihydro-1,5-naphthyridine-2-carbonitrile], the results for the IC50 at human DGKα and at human DGKζ were 8.7 µM and 2.4 µM, respectively. Further, the EC50 on DGKalpha was more than 3 µM; at DGKzeta, 0.11 µM.

Consider `Cn1c(=O)cc(N(CC2CC2)c2ccc(Br)cc2)c2nc(C#N)ccc21` [Example 18, 8-[(4-bromophenyl)(cyclopropylmethyl)amino]-5-methyl-6-oxo-5,6-dihydro-1,5-naphthyridine-2-carbonitrile], for which the IC50 amounted to 0.26 µM on human DGKα and 0.23 µM at human DGKζ. The EC50 on DGKalpha amounted to 2.7 µM; at DGKzeta, 5 µM.

With `Cn1c(=O)cc(N(CC2CC2)c2ccc(C3CC3)c(-c3ccccc3)c2)c2nc(C#N)ccc21` [Example 122, 8-((6-cyclopropyl-[1,1′-biphenyl]-3-yl)(cyclopropylmethyl)amino)-5-methyl-6-oxo-5,6-dihydro-1,5-naphthyridine-2-carbonitrile], the half-maximal inhibitory concentration (IC50) at human DGKα is 19 µM; at human DGKζ, 22 µM. Also, the results for the EC50 at DGKalpha and at DGKzeta were more than 3 µM and 0.17 µM, respectively.

Consider `Cn1c(=O)cc(N(CC2CC2)c2ccc(C3CC3)nc2)c2nc(C#N)ccc21` [Example 114, 8-((cyclopropylmethyl)(6-cyclopropylpyridin-3-yl)amino)-5-methyl-6-oxo-5,6-dihydro-1,5-naphthyridine-2-carbonitrile], for which the figures for the IC50 on human DGKα and at human DGKζ were 7.9 µM and 1.4 µM, respectively. Besides, the EC50 at DGKalpha was more than 3 µM; at DGKzeta it was 0.13 µM.

On to `Cn1c(=O)cc(N(CC2CC2)c2ccc(C3CC3)c(-c3ccc(Cl)cc3)c2)c2nc(C#N)ccc21` [Example 128, 8-((4′-chloro-6-cyclopropyl-[1,1′-biphenyl]-3-yl)(cyclopropylmethyl)amino)-5-methyl-6-oxo-5,6-dihydro-1,5-naphthyridine-2-carbonitrile], for which the IC50 at human DGKα and on human DGKζ was more than 38 µM throughout. Besides, the EC50 at DGKalpha was more than 3 µM; at DGKzeta it was 0.13 µM.

With `Cn1c(=O)cc(N(CC2CC2)c2ccc(OC(F)F)nc2)c2nc(C#N)ccc21` [Example 112, 8-((cyclopropylmethyl)(6-(difluoromethoxy)pyridin-3-yl)amino)-5-methyl-6-oxo-5,6-dihydro-1,5-naphthyridine-2-carbonitrile], the half-maximal inhibitory concentration (IC50) on human DGKα was 4.7 µM; at human DGKζ it was 1.1 µM. Besides, the EC50 was more than 3 µM on DGKalpha and 0.091 µM on DGKzeta.

On to `COc1cccc(-c2cc(N(CC3CC3)c3cc(=O)n(C)c4ccc(C#N)nc34)ccc2C2CC2)c1` [Example 129, 8-((6-cyclopropyl-3′-methoxy-[1,1′-biphenyl]-3-yl)(cyclopropylmethyl)amino)-5-methyl-6-oxo-5,6-dihydro-1,5-naphthyridine-2-carbonitrile], for which the IC50 at human DGKα and on human DGKζ was more than 38 µM throughout. Further, the EC50 at DGKalpha was more than 1.5 µM; on DGKzeta, 0.13 µM.

Take `Cc1cc(C2CC2)ccc1N(CC1CC1)c1cc(=O)n(C)c2ccc(C#N)nc12` [Example 113, 8-((4-cyclopropyl-2-methylphenyl) (cyclopropylmethyl)amino)-5-methyl-6-oxo-5,6-dihydro-1,5-naphthyridine-2-carbonitrile]: the IC50 on human DGKα turned out to be 4.8 µM; on human DGKζ, 29 µM. The EC50 is more than 3 µM at DGKalpha and 0.25 µM on DGKzeta.

Turning to `Cn1c(=O)cc(N(CC2CC2)c2ccc(C3CC3)c(-c3ccc(C4CC4)cc3)c2)c2nc(C#N)ccc21` [Example 125, 8-((cyclopropylmethyl)(4′,6-dicyclopropyl-[1,1′-biphenyl]-3-yl)amino)-5-methyl-6-oxo-5,6-dihydro-1,5-naphthyridine-2-carbonitrile], the IC50 on human DGKα came out at 36 µM; on human DGKζ, 32 µM. Moreover, the EC50 on DGKalpha was more than 3 µM; at DGKzeta it was 0.091 µM.

Turning to `Cn1c(=O)cc(N(CC2CC2)c2ccc(C3CC3)c(-c3ccc(F)cc3)c2)c2nc(C#N)ccc21` [Example 127, 8-((6-cyclopropyl-4′-fluoro-[1,1′-biphenyl]-3-yl)(cyclopropylmethyl)amino)-5-methyl-6-oxo-5,6-dihydro-1,5-naphthyridine-2-carbonitrile], the results for the IC50 on human DGKα and on human DGKζ were more than 38 µM and 18 µM, respectively. In addition, the EC50 at DGKalpha was more than 3 µM; on DGKzeta, 0.1 µM.
